“Also recorded” adds a separate entry of the source.
T1: recombinant RIG-I (Homo sapiens, UniProt O95786)
T1 sequence (O95786 1-925): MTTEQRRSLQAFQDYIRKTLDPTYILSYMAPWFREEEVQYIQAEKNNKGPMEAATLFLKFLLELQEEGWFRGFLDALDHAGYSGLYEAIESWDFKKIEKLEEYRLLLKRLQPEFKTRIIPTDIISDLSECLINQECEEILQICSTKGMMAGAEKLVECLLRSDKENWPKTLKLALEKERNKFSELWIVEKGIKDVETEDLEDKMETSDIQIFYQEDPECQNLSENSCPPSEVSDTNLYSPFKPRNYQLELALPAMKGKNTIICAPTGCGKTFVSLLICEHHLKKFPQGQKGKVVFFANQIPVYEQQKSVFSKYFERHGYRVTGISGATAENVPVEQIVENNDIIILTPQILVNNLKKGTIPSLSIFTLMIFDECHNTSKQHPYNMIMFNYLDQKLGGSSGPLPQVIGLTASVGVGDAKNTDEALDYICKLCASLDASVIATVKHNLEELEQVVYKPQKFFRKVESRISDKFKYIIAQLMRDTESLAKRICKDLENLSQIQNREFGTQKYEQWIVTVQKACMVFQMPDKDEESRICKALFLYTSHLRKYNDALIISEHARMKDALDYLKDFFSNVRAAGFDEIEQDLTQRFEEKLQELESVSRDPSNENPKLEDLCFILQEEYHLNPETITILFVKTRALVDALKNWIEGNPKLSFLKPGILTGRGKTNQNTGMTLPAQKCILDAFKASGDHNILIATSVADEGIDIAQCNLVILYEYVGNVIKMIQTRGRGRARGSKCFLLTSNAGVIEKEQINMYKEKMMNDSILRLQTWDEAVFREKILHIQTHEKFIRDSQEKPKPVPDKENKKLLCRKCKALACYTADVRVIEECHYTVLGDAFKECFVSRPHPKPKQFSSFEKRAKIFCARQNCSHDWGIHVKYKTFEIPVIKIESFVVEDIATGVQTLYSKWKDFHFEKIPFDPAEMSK

B1: SRP9: Recombinant SRP9 protein, GST tag cleaved with TEV protease (protein, UniProt P49458 2-86, looked up)
Signal recognition particle 9 …: PQYQTWEEFSRAAEKLYLADPMKARVVLKYRHSDGNLCVKVTDDLVCLVYKTDQAQDVKKIEKFHSQLMRLMVAKEARNVTMETE

Tests used:
B16-F10 tumor cells [1] = experiment: B16-F10/MEF co-implantation, tumor immune populations by flow cytometry; type: in vivo, C57BL/6 mice
Description: Mice were implanted with tumors as described FIGS. 25A-25B. Tumors were harvested 13 days later and assessed for infiltration of macrophages or myeloid derived suppressor cells (MDSCs). Macrophages are considered Lin−, F4/80+, and CD11b+ cells. MDSCs are considered Lin−, F4/80−, CD11c−, CD11b+, and Ly6C+ cells. Tumors were treated with anti-CTLA4 blocking antibody (FIG. 26D) as described in FIGS. 25A and 25B, and tumors were harvested at d15 to measure M2 polarization of macrophages as marked by CD206.
Furthermore, mice were implanted with the same tumors and subsequently treated with the CSF1R inhibitor BLZ945. Polarization of macrophages and frequency of CD103+DCs were tested.
In addition, mice were implanted with tumors and treated with anti-CTLA4+/−CSF1Ri BLZ945. Tumors were harvested 13 days later and immune populations were assessed using an unbiased clustering of flow cytometry data.
Mice were implanted with B16-F10 tumor cells mixed 1:1 with MEFs or MEFs co-expressing SRP9/14 (FIG. 35B). Tumors were harvested 2 weeks post-injection and analyzed for immune cell populations. Unshielded RN7SL1 increased the frequency of dendritic cells, the percentage of CD103+ dendritic cells, the percentage of CD69+CD8+ T cells, and the percentage of PD1+CD8+ T cells in tumors (FIG. 35C). […] Without wishing to be bound by theory, a CSF1R inhibitor blocks M2 polarization and may synergize with unshielded RN7SL1.

B16-F10 tumor cells [2] = experiment: B16-F10/MEF co-implantation, tumor growth and survival under checkpoint blockade; type: in vivo, C57BL/6 mice; conditions: BLZ945 every 2 days for 2 weeks, anti-CTLA4 or anti-CTLA4 and anti-PD1, tumors with unshielded 7SL
Description: Wild type (WT) C57BL/6 mice were injected with 5×10^4 B16-F10 tumor cells subcutaneously in the flank with 5×10^4 MYC activated mouse embryonic fibroblasts (MEFs) or MYC activated MEFs co-expressing SRP9/14. MYC activation is inducible with 4-OHT and results in the secretion of exosomes containing unshielded 7SL1 RNA, while co-expression of SRP9/14 ensures the 7SL1 RNA remains relatively shielded, allowing measurement of the stimulatory capacity specifically of the unshielded form (Nabet B Y, et al. Cell. 2017; 170 (2): 352-366.e13). Mice were subsequently treated with the anti-CTLA-4 or anti-PD-1 antibody (or not), and then tumor growth was monitored by caliper. Endpoint criterion was considered a tumor measurement of 1.5 cm in any direction.
Tumors were implanted as described in FIGS. 25A-25B and treated with CSF1R inhibitor BLZ945 (Novartis) every 2 days for 2 weeks starting at day 0 to prevent M2 polarization of infiltrating myeloid cells. Mice were additionally treated with anti-CTLA4 (FIG. 27A) or anti-CTLA4 and anti-PD1 (FIGS. 27B and 27C) on days 5, 8, and 11. Tumor growth was monitored by caliper.

[3] = tested on: pancreatic ductal adenocarcinoma (PDA) tumor cells; experiment: PDA/MEF co-injection, tumor growth under ICB therapy; type: in vivo, mice; conditions: BLZ945 with unshielded 7SL RNA, anti-CTLA4 and anti-PD1
Description: CSF1R inhibition in combination with unshielded 7SL RNA sensitizes PDA tumors to ICB therapy (FIGS. 28A-28B). 1×10^5 pancreatic ductal adenocarcinoma (PDA) tumor cells were co-injected with 1×10^5 MEFs (“myc-ER”) or MEFs co-expressing SRP9/14 (“myc-ER/SRP”) treated with 4OHT or EtOH. Mice were then treated with a combination of anti-CTLA4 and anti-PD1 antibodies (FIG. 28A) or a triple combination of anti-CTLA4, anti-PD1, and BLZ945 (FIG. 28B) using treatment schedules outlined in the study shown in FIGS. 27A-27C. Tumor growth was monitored by caliper.

recombinant RIG-I = molecular target: T1, recombinant RIG-I; experiment: RIG-I ATPase assay (ATP hydrolysis); type: biochemical
Description: RIG-I ATPase Assays. RIG-I ATPase assays were performed as previously described (Devarkar et al. (2016) Proc. Natl. Acad. Sci. 113, 596-601). In brief, increasing amounts of RNA (10-60 nM) were added to a constant quantity of RIG-I (5 nM) in the presence of 1 mM ATP. ATP hydrolysis was measured with the EnzChek Phosphate Assay Kit (ThermoFisher) after 60-90 minutes at 37° C. ATP hydrolysis was then measured by absorbance of 360 nm compared to background. A 19-mer 5′triphosphate dsRNA (Invivogen) and DVG396 were used as positive controls and a 19-mer 5′OH dsRNA (Invivogen) and an in vitro transcribed 300 bp ssRNA stretch of GAPDH (GAPDH300) were used as negative controls.

Molecule	activated CD4+ T cells in tumors (B16-F10 tumor cells [1]; anti-CTLA4 +/- CSF1Ri, high unshielded 7SL, 13 days)	frequency of M2 macrophages in the tumor (B16-F10 tumor cells [1]; high levels of unshielded 7SL RNA)	infiltration of cross-presenting CD103+ DCs (B16-F10 tumor cells [1]; high levels of unshielded 7SL RNA, CSF1R inhibition)	response to checkpoint blockade with CSF1R inhibition (B16-F10 tumor cells [2])	response to checkpoint blockade with CSF1R inhibition (B16-F10 tumor cells [2]; listed as small molecule inhibitor of CSF1R)	sensitization of PDA tumors to ICB therapy [3]	ATP hydrolysis by recombinant RIG-I after addition of SRP9 (recombinant RIG-I; SRP9 added to DVG396 or unrelated 5'ppp or 5'OH control RNAs)	ATP hydrolysis by recombinant RIG-I after addition of SRP9 (recombinant RIG-I; SRP9 added to in vitro transcribed RN7SL1)
CNC(=O)c1cc(Oc2ccc3nc(N[C@@H]4CCCC[C@H]4O)sc3c2)ccn1 [BLZ945]	markedly increased	decreased the frequency of M2 macrophages found in the tumor	improving the infiltration of cross-presenting CD103+DCs	allows tumors with high levels of unshielded 7SL to respond more robustly to checkpoint blockade; also recorded: enhanced the anti-tumor activity of an anti-PD1 antibody and an anti-CTLA-4 antibody	led to improved response in tumors with high levels of unshielded 7SL1	sensitizes PDA tumors to anti-PD-1 and anti-CTLA-4 antibody therapies		
B1							did not influence	partially inhibited ATP hydrolysis by recombinant RIG-I
